The record followed here is patent US11724997B2, “Compounds and compositions for treating conditions associated with APJ receptor activity” (Annapurna Bio, Inc., priority 2018, dated 2023).

This assay concerns the target T1, APJ Receptor (Homo sapiens, UniProt P35414).
T1 sequence (P35414 1-380): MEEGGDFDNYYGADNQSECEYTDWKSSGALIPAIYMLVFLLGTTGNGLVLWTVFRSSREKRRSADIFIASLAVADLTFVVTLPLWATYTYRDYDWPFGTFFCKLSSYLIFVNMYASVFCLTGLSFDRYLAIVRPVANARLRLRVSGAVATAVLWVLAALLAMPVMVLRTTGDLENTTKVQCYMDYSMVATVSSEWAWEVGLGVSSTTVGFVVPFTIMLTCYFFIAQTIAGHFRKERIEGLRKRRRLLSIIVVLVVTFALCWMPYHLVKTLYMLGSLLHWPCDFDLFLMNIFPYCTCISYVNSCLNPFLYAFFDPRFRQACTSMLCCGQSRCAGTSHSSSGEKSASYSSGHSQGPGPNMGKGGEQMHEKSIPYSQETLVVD
Put plainly: APJ cAMP assay: inhibition of forskolin-stimulated cAMP, enzyme fragment complementation, in CHO-K1 cells stably expressing the APJ Receptor. To be noted: CHO-K1 cell line (DiscoverX) stably expressing APJ Receptor; EC80 forskolin; 30 minutes at 37° C.; read-out: APJ cAMP EC50 Potency range. The class given is cell-based. The text has this:
Activation of APJ receptor is known to inhibit forskolin-stimulated cyclic AMP (cAMP) production in cells in a pertussis toxin-sensitive manner which indicates primary coupling to the GαI subunit of the G protein heterotrimeric complex. In addition to signaling through G protein and inhibition of cAMP, APJ receptor activation also results in β-arrestin recruitment, receptor internalization and activation of extracellular-regulated kinases (ERKs).
In order to optimize functional activity directed toward Gi coupling we utilized a CHO-K1 cell line developed by DiscoverX stably expressing the APJ Receptor. Cells expressing APJR receptor were plated in a 384-well microtiter plates and incubated overnight at 37° C. with 5% CO2 to allow the cells to attach and grow. Media was then aspirated from the cells and replaced with 15 uL 2:1 Hanks Balanced Salt Solution (HBSS)/10 mM Hepes. cAMP XS+ Ab reagent. Five microliters (5 uL) of previously generated compound sample stocks at 4× final concentration in assay buffer containing 4×EC80 forskolin were then added to the cells and allowed to incubate at 37° C. for 30 minutes.
After incubation the assay signal was generated using a technology termed enzyme fragment complementation (EFC). In EFC the enzyme B-galactosidase is split into two complementary portions (EA and ED). The fragment ED is fused to cAMP and in the assay format competes with endogenous cAMP for binding to a cAMP specific antibody. Activated B-Gal is formed when exogenous EA fragment binds to free ED-cAMP (not bound to cAMP specific antibody). Activated enzyme levels are detected through conversion of B-gal chemiluminescent substrate which generates a detectable luminescence signal and read on standard microtiter plate.
The methodology for detection of cAMP using EFC requires incubation with 20 uL of cAMP XS+ ED/CL lysis cocktail for one hour followed by incubation with 20 uL cAMP XS+ EA reagent for three hours at room temperature. Microplates were read following signal generation with a PerkinElmer Envision instrument utilizing chemiluminescent signal detection.
Compound activity was analyzed using CBIS data analysis suite (ChemInnovation, CA).
Percentage activity was calculated using the following formula: % Activity=[…]×(1−(mean RLU of test sample−mean RLU of Max control)/(mean RLU of vehicle control−mean RLU of Max control))
The biological activity of the exemplified compounds of this invention determined by the assay described above is shown in Table 1. The APJ cAMP EC50 potency ranges are as follows: A: EC50<1 nM; B: 1≤EC50<100 nM; and C: 100≤EC50<10,000 nM.

In general, EC50 refers to the concentration that produces a half-maximal response. Regarding `CCOc1cccc(-c2nnc(C(=O)NS(=O)(=O)Cc3ncccc3F)n2-c2c(OC)cccc2OC)n1` [Example 52, 4-(2,6-Dimethoxyphenyl)-5-(6-ethoxypyridin-2-yl)-N-(((3-fluoropyridin-2-yl)methyl)sulfonyl)-4H-1,2,4-triazole-3-carboxamide], the EC50 was below 1 nM.

In the case of `CCOc1cccc(-c2nnc(C(=O)NS(=O)(=O)Cc3ccccc3F)n2-c2c(OC)cccc2OC)n1` [Example 53, 4-(2,6-Dimethoxyphenyl)-5-(6-ethoxypyridin-2-yl)-N-((2-fluorobenzyl)sulfonyl)-4H-1,2,4-triazole-3-carboxamide], the EC50 is below 1 nM.

On to `CCOc1cccc(-c2nnc(C(=O)NS(=O)(=O)Cc3ncn(C)n3)n2-c2c(OC)cccc2OC)n1` [Example 54, 4-(2,6-Dimethoxyphenyl)-5-(6-ethoxypyridin-2-yl)-N-(((1-methyl-1H-1,2,4-triazol-3-yl)methyl)sulfonyl)-4H-1,2,4-triazole-3-carboxamide], for which the EC50 is below 1 nM.

In the case of `COc1cccc(OC)c1-n1c(C(=O)NS(=O)(=O)Cc2ncn(C)n2)nnc1-c1ccc(C)o1` [Example 55, 4-(2,6-Dimethoxyphenyl)-N-(((1-methyl-1H-1,2,4-triazol-3-yl)methyl)sulfonyl)-5-(5-methylfuran-2-yl)-4H-1,2,4-triazole-3-carboxamide], the EC50 was below 1 nM.

`CCOc1cccc(-c2nnc(C(=O)NS(=O)(=O)Cc3cccnc3)n2-c2c(OC)cccc2OC)n1` [Example 56, 4-(2,6-Dimethoxyphenyl)-5-(6-ethoxypyridin-2-yl)-N-((pyridin-3-ylmethyl)sulfonyl)-4H-1,2,4-triazole-3-carboxamide]: the EC50 was below 1 nM.

Turning to `CCOc1cccc(-c2nnc(C(=O)NS(=O)(=O)C(C)Cc3ccccc3)n2-c2c(OC)cccc2OC)n1` (centres unmarked) [Example 57, 4-(2,6-Dimethoxyphenyl)-5-(6-ethoxypyridin-2-yl)-N-((1-phenylpropan-2-yl)sulfonyl)-4H-1,2,4-triazole-3-carboxamide], the EC50 is below 1 nM.

For `COc1cccc(OC)c1-n1c(C(=O)NS(=O)(=O)Cc2ncccn2)nnc1-c1cccc(OC(F)(F)F)n1` [Example 58, 4-(2,6-Dimethoxyphenyl)-N-((pyrimidin-2-ylmethyl)sulfonyl)-5-(6-(trifluoromethoxy)pyridin-2-yl)-4H-1,2,4-triazole-3-carboxamide], the EC50 was 1 to 100 nM.

As for `COc1cccc(OC)c1-n1c(C(=O)NS(=O)(=O)Cc2ncccn2)nnc1-c1cncc(C)c1` [Example 59, 4-(2,6-Dimethoxyphenyl)-5-(5-methylpyridin-3-yl)-N-((pyrimidin-2-ylmethyl)sulfonyl)-4H-1,2,4-triazole-3-carboxamide], the EC50 is 100 to 10000 nM.

`COc1cccc(-c2nnc(C(=O)NS(=O)(=O)Cc3ccccc3)n2-c2c(Cl)cccc2Cl)n1` [Example 60, N-(benzylsulfonyl)-4-(2,6-dichlorophenyl)-5-(6-methoxypyridin-2-yl)-4H-1,2,4-triazole-3-carboxamide]: the EC50 lay within 100 to 10000 nM.

Consider `COc1cccc(-c2nnc(C(=O)NS(=O)(=O)Cc3ccccc3)n2-c2c(F)cccc2F)n1` [Example 61, N-(benzylsulfonyl)-4-(2,6-difluorophenyl)-5-(6-methoxypyridin-2-yl)-4H-1,2,4-triazole-3-carboxamide], for which the EC50 was 100 to 10000 nM.

With `COc1cccc(-c2nnc(C(=O)NS(=O)(=O)Cc3ccccc3)n2-c2c(OC)cccc2C(F)(F)F)n1` [Example 62, N-(benzylsulfonyl)-4-(2-methoxy-6-(trifluoromethyl)phenyl)-5-(6-methoxypyridin-2-yl)-4H-1,2,4-triazole-3-carboxamide], the EC50 was 1 to 100 nM.

For `COc1cccc(-c2nnc(C(=O)NS(=O)(=O)Cc3ccccc3)n2-c2c(F)cccc2OC)n1` [Example 63, N-(benzylsulfonyl)-4-(2-fluoro-6-methoxyphenyl)-5-(6-methoxypyridin-2-yl)-4H-1,2,4-triazole-3-carboxamide], the EC50 was in the range of 1 to 100 nM.

For `COc1ccc(Cn2nc(C3CC3)nc2-c2nnc(C(=O)NS(=O)(=O)Cc3ccccc3)n2-c2c(OC)cccc2OC)cc1` [Example 64, N-(benzylsulfonyl)-5-cyclopropyl-4′-(2,6-dimethoxyphenyl)-2-(4-methoxybenzyl)-2H,4′H-[3,3′-bi(1,2,4-triazole)]-5′-carboxamide], the EC50 is 100 to 10000 nM.

For `COc1cccc(OC)c1-n1c(C(=O)NS(=O)(=O)Cc2ccccc2)nnc1-c1nc(C2CC2)n[nH]1` [Example 65, N-(benzylsulfonyl)-5-cyclopropyl-4′-(2,6-dimethoxyphenyl)-2H,4′H-[3,3′-bi(1,2,4-triazole)]-5′-carboxamide], the EC50 fell in the range of 100 to 10000 nM.
